In ChEMBL document CHEMBL1136291, “Synthesis of C-8 methanesulphonate substituted pyrrolobenzodiazepines as potential antitumour agents” (2003):

Key:
[1] = test system: CCRF-CEM; assay: In vitro antitumor activity against human leukemia CCRF-CEM cell line; type: functional
[2] = test system: OVCAR-4; assay: In vitro antitumor activity against human ovarian OVCAR-4 cell line; type: functional
[3] = test system: SR; assay: In vitro antitumor activity against human leukemia SR cell line; type: functional
[4] = test system: SNB-75; assay: In vitro antitumor activity against human CNS SNB-75 cell line; type: functional
[5] = test system: 786-0; assay: In vitro antitumor activity against human renal 786-0 cell line; type: functional
[6] = test system: ACHN; assay: In vitro antitumor activity against human renal ACHN cell line; type: functional
[7] = test system: A498; assay: In vitro antitumor activity against human renal A498 cell line; type: functional
[8] = test system: CAKI-1; assay: In vitro antitumor activity against human renal CAKI-1 cell line; type: functional
[9] = test system: HCT-15; assay: In vitro antitumor activity against human Colon HCT-15 cell line; type: functional
[10] = test system: HCT-116; assay: In vitro antitumor activity against human Colon HCT116 cell line; type: functional
[11] = test system: LOX IMVI; assay: In vitro antitumor activity against human melanoma […] cell line; type: functional
[12] = test system: MDA-MB-231; assay: In vitro antitumor activity against human breast MDA-MB-231/ATCC cell line; type: functional
[13] = test system: M14; assay: In vitro antitumor activity against human melanoma M14 cell line; type: functional
[14] = test system: Malme-3M; assay: In vitro antitumor activity against human melanoma MALME-3M cell line; type: functional
[15] = test system: NCI-H522; assay: In vitro antitumor activity against human non-small cell lung NCI-H522 cell line; type: functional
[16] = test system: NCI-H23; assay: In vitro antitumor activity against human non-small cell lung NCI-H23 cell line
[17] = test system: NCI-H226; assay: In vitro antitumor activity against human non-small cell lung NCI-H226 cell line; type: functional
[18] = test system: NCI/ADR-RES; assay: In vitro antitumor activity against human breast NCI/ADR-RES cell line; type: functional
[19] = test system: OVCAR-3; assay: In vitro antitumor activity against human ovarian OVCAR-3 cell line; type: functional
[20] = test system: RPMI-8226; assay: In vitro antitumor activity against human leukemia RPMI-8226 cell line; type: functional
[21] = test system: SW-620; assay: In vitro antitumor activity against human Colon SW-620 cell line; type: functional
[22] = test system: SK-MEL-5; assay: In vitro antitumor activity against human melanoma SK-MEL-5 cell line; type: functional
[23] = test system: TK-10; assay: In vitro antitumor activity against human renal TK-10 cell line; type: functional
[24] = test system: UO-31; assay: In vitro antitumor activity against human renal UO-31 cell line; type: functional
[25] = test system: UACC-257; assay: In vitro antitumor activity against human melanoma UACC-257 cell line; type: functional
[26] = test system: U-251; assay: In vitro antitumor activity against human CNS U251 cell line; type: functional
[27] = test system: UACC-62; assay: In vitro antitumor activity against human melanoma UACC-62 cell line; type: functional
[28] = test system: SF-539; assay: In vitro antitumor activity against human CNS SF-539 cell line; type: functional

COc1cc2c(cc1OCCCOS(C)(=O)=O)N=C[C@@H]1CCCN1C2=O was tested, and the GI50 [1] was 52.8 µM, the GI50 [2] was 70.3 µM and the GI50 [3] was 62.9 µM. The GI50 [4] was 94.7 µM.
COc1cc2c(cc1OCCOS(C)(=O)=O)N=C[C@@H]1CCCN1C2=O gave a GI50 [5] of 17 µM, a GI50 [6] of 16 µM and a GI50 [7] of 17.1 µM. For the same molecule, the GI50 [1] was 14.5 µM, the GI50 [8] was 17.7 µM and the GI50 [9] was 16.5 µM. The GI50 [10] was 18.5 µM, the GI50 [11] was 15.7 µM and the GI50 [12] was 16.5 µM. It also gave a GI50 [13] of 18.7 µM, a GI50 [14] of 13.6 µM and a GI50 [15] of 10.9 µM. For the same molecule, the GI50 [16] was 12.2 µM, the GI50 [17] was 15.4 µM and the GI50 [18] was 13.5 µM. It also gave a GI50 [19] of 16.3 µM, a GI50 [20] of 12.2 µM and a GI50 [21] of 14.6 µM. For the same molecule, the GI50 [3] was 11.1 µM, the GI50 [22] was 16.9 µM and the GI50 [23] was 18.1 µM. The GI50 [24] was 15.2 µM, the GI50 [25] was 18.2 µM and the GI50 [26] was 17.1 µM. For the same molecule, the GI50 [27] was 19.4 µM and the GI50 [28] was 18.6 µM.
